Assay results reported in ChEMBL document CHEMBL1201862, “PubChem BioAssay data set” (2004).
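Each compound was tested at five concentrations against cells in 96-well plates for 48 hours. GI50: concentration for 50% inhibition of growth.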 Active and inactive are the calls of the source. No stated cut-off is given here; in the data, active = GI50 up to about 1.1 µM and inactive = higher.

Tests used:
Experiment in all cases: NCI anticancer screen, dose series, 48 h
[1] = tested on: 786-0
[2] = tested on: A498
[3] = tested on: A549
[4] = tested on: ACHN
[5] = tested on: BT-549
[6] = tested on: CAKI-1
[7] = tested on: CCRF-CEM
[8] = tested on: COLO 205
[9] = tested on: DLD-1
[10] = tested on: DMS-114
[11] = tested on: DMS-273
[12] = tested on: DU-145
[13] = tested on: EKVX
[14] = tested on: HCC 2998
[15] = tested on: HCT-116
[16] = tested on: HCT-15
[17] = tested on: HL-60
[18] = tested on: HOP-18
[19] = tested on: HOP-62
[20] = tested on: HOP-92
[21] = tested on: HT-29
[22] = tested on: Hs-578T
[23] = tested on: IGROV-1
[24] = tested on: K562
[25] = tested on: KM-20L2
[26] = tested on: KM12
[27] = tested on: LOX IMVI
[28] = tested on: LXFL 529
[29] = tested on: M14
[30] = tested on: M19-MEL
[31] = tested on: MCF7
[32] = tested on: MDA-MB-231
[33] = tested on: MDA-MB-435
[34] = tested on: MDA-N
[35] = tested on: MOLT-4
[36] = tested on: Malme-3M
[37] = tested on: NCI-H226
[38] = tested on: NCI-H23
[39] = tested on: NCI-H460
[40] = tested on: NCI-H522
[41] = tested on: NCI/ADR-RES
[42] = tested on: OVCAR-3
[43] = tested on: OVCAR-4
[44] = tested on: OVCAR-5
[45] = tested on: OVCAR-8
[46] = tested on: PC-3
[47] = tested on: RPMI-8226
[48] = tested on: RXF 393
[49] = tested on: SF-268
[50] = tested on: SF-295
[51] = tested on: SF-539
[52] = tested on: SK-MEL-28
[53] = tested on: SK-MEL-2
[54] = tested on: SK-MEL-5
[55] = tested on: SK-OV-3
[56] = tested on: SN12C
[57] = tested on: SNB-19
[58] = tested on: SNB-75
[59] = tested on: SNB-78
[60] = tested on: SR
[61] = tested on: SW-620
[62] = tested on: T47D
[63] = tested on: TK-10
[64] = tested on: U-251
[65] = tested on: UACC-257
[66] = tested on: UACC-62
[67] = tested on: UO-31

Compound: O=C(CCN1CCCCC1)Nc1ccc2c(c1)C(=O)c1ccc(NC(=O)CCN3CCCCC3)cc1C2=O
- GI50 [1]: 1.61 µM (inactive)
- GI50 [2]: 13.7 µM (inactive)
- GI50 [3]: 4.84 µM (inactive)
- GI50 [4]: 11.6 µM (inactive)
- GI50 [5]: 14.6 µM (inactive)
- GI50 [6]: 12.6 µM (inactive)
- GI50 [7]: 2.37 µM (inactive)
- GI50 [8]: 10.9 µM (inactive)
- GI50 [9]: 2.92 µM (inactive)
- GI50 [10]: 17.6 µM (inactive)
- GI50 [11]: 1.71 µM (inactive)
- GI50 [12]: 14 µM (inactive)
- GI50 [13]: 15.6 µM (inactive)
- GI50 [14]: 4.45 µM (inactive)
- GI50 [15]: 1.71 µM (inactive)
- GI50 [16]: 2.59 µM
- GI50 [17]: 2.79 µM (inactive)
- GI50 [18]: 17 µM (inactive)
- GI50 [19]: 2.12 µM (inactive)
- GI50 [20]: 15.4 µM (inactive)
- GI50 [21]: 3.24 µM (inactive)
- GI50 [22]: 11.7 µM (inactive)
- GI50 [23]: 3.61 µM (inactive)
- GI50 [24]: 2.25 µM (inactive)
- GI50 [25]: 18 µM (inactive)
- GI50 [26]: 1.62 µM (inactive)
- GI50 [27]: 1.75 µM (inactive)
- GI50 [28]: 1.88 µM (inactive)
- GI50 [29]: 5.73 µM (inactive)
- GI50 [30]: 43.1 µM (inactive)
- GI50 [31]: 2.31 µM (inactive)
- GI50 [32]: 2.04 µM (inactive)
- GI50 [33]: 1.82 µM (inactive)
- GI50 [34]: 1.65 µM (inactive)
- GI50 [35]: 3.83 µM (inactive)
- GI50 [36]: 10.5 µM (inactive)
- GI50 [37]: 15.6 µM (inactive)
- GI50 [38]: 6.05 µM (inactive)
- GI50 [39]: 1.57 µM (inactive)
- GI50 [40]: 16.9 µM (inactive)
- GI50 [41]: 10.9 µM (inactive)
- GI50 [42]: 8.11 µM (inactive)
- GI50 [43]: 3.5 µM (inactive)
- GI50 [44]: 16.5 µM (inactive)
- GI50 [45]: 5.57 µM (inactive)
- GI50 [46]: 2.26 µM (inactive)
- GI50 [47]: 4.43 µM (inactive)
- GI50 [48]: 3.85 µM (inactive)
- GI50 [49]: 7.96 µM (inactive)
- GI50 [50]: 5.22 µM (inactive)
- GI50 [51]: 2.61 µM (inactive)
- GI50 [52]: 17.5 µM (inactive)
- GI50 [53]: 5.16 µM (inactive)
- GI50 [54]: 5.71 µM (inactive)
- GI50 [55]: 13.2 µM (inactive)
- GI50 [56]: 5.81 µM (inactive)
- GI50 [57]: 4.48 µM (inactive)
- GI50 [58]: 3.82 µM (inactive)
- GI50 [59]: 15.3 µM (inactive)
- GI50 [60]: 2.47 µM (inactive)
- GI50 [61]: 2.1 µM (inactive)
- GI50 [62]: 16.5 µM (inactive)
- GI50 [63]: 8.34 µM (inactive)
- GI50 [64]: 4.98 µM (inactive)
- GI50 [65]: 16.3 µM (inactive)
- GI50 [66]: 19.9 µM (inactive)
- GI50 [67]: 12.4 µM (inactive)

Compound: Cc1nc(-n2nc(-c3ccccc3)cc2-c2ccccc2)sc1C(=O)/C=C/c1cccc([N+](=O)[O-])c1
- GI50 [1]: 12.7 µM (inactive)
- GI50 [2]: 20.2 µM (inactive)
- GI50 [3]: 17.5 µM (inactive)
- GI50 [4]: 23.3 µM (inactive)
- GI50 [6]: 16.7 µM (inactive)
- GI50 [7]: 8.32 µM (inactive)
- GI50 [8]: 17 µM (inactive)
- GI50 [9]: 12 µM (inactive)
- GI50 [10]: 11.6 µM (inactive)
- GI50 [11]: 26.5 µM (inactive)
- GI50 [13]: 34.7 µM (inactive)
- GI50 [14]: 15.5 µM (inactive)
- GI50 [16]: 16.8 µM
- GI50 [17]: 12.2 µM (inactive)
- GI50 [18]: 12.1 µM (inactive)
- GI50 [19]: 15.9 µM (inactive)
- GI50 [20]: 22.9 µM (inactive)
- GI50 [21]: 12.7 µM (inactive)
- GI50 [23]: 24.1 µM (inactive)
- GI50 [24]: 8.75 µM (inactive)
- GI50 [25]: 17.8 µM (inactive)
- GI50 [26]: 2.62 µM (inactive)
- GI50 [27]: 11.2 µM (inactive)
- GI50 [30]: 16.4 µM (inactive)
- GI50 [35]: 6.04 µM (inactive)
- GI50 [36]: 19.2 µM (inactive)
- GI50 [38]: 17.2 µM (inactive)
- GI50 [39]: 25.8 µM (inactive)
- GI50 [40]: 13.8 µM (inactive)
- GI50 [42]: 3.03 µM (inactive)
- GI50 [44]: 23.7 µM (inactive)
- GI50 [45]: 28.4 µM (inactive)
- GI50 [47]: 4.76 µM (inactive)
- GI50 [48]: 14.1 µM (inactive)
- GI50 [49]: 12.3 µM (inactive)
- GI50 [50]: 20.1 µM (inactive)
- GI50 [51]: 10.9 µM (inactive)
- GI50 [52]: 17.1 µM (inactive)
- GI50 [53]: 17.7 µM (inactive)
- GI50 [54]: 12.7 µM (inactive)
- GI50 [55]: 46.3 µM (inactive)
- GI50 [56]: 19.8 µM (inactive)
- GI50 [57]: 11.4 µM (inactive)
- GI50 [58]: 5.73 µM (inactive)
- GI50 [59]: 52.7 µM (inactive)
- GI50 [61]: > 10 µM (inactive)
- GI50 [63]: 36 µM (inactive)
- GI50 [64]: 15.2 µM (inactive)
- GI50 [65]: 22.5 µM (inactive)
- GI50 [66]: 13.8 µM (inactive)
- GI50 [67]: 11.6 µM (inactive)
